Assay [1] deals with Kappa-type opioid receptor (Cavia porcellus, UniProt P41144). Briefly: Displacement of [3H]-diprenorphine from guinea pig kappa opioid receptor expressed in CHOK1 cell membranes. The settings on record: cho-k1. On the technique in general: Displacement assays read how much labelled ligand stays bound in the presence of the test substance.
Assay [2] addresses Mu-type opioid receptor (Homo sapiens) (UniProt P35372). Description: Intrinsic activity at human mu opioid receptor expressed in CHOK1 cell membranes at 0.00001 to 20 uM after 30 mins by GTP-Eu nucleotide exchange assay relative to DAMGO. It counts as functional. The settings on record: CHO-K1.
The target in assay [3] is Delta-type opioid receptor (Homo sapiens, UniProt P41143). Briefly: Displacement of [3H]-diprenorphine from human delta opioid receptor expressed in cell membranes.
Sequence of Delta-type opioid receptor (P41143 whole entry): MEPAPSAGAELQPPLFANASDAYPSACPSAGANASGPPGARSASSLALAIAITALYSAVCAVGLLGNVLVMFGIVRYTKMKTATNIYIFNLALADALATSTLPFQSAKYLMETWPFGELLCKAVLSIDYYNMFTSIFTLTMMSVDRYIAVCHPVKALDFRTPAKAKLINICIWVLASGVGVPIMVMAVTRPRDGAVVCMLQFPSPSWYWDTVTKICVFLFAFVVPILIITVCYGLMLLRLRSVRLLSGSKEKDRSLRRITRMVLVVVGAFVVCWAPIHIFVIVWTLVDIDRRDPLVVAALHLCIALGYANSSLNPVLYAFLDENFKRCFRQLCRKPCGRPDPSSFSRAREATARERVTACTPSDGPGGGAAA

For orientation: pKi means the negative decadic logarithm of the Ki, by convention in mol/L. A high value points to a low Ki.

Sequence of Kappa-type opioid receptor (P41144 whole entry): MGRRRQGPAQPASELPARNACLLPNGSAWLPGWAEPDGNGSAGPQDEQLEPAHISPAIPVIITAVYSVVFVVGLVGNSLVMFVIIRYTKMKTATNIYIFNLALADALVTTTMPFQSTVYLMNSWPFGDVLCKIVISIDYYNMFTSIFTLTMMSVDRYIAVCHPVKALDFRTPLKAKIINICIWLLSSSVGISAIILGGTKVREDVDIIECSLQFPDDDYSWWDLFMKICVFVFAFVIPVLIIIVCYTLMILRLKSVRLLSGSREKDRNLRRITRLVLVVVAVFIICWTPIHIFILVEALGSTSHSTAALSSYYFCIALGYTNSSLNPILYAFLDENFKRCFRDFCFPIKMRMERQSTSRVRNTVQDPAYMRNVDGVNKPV
Sequence of Mu-type opioid receptor (Homo sapiens) (P35372 whole entry): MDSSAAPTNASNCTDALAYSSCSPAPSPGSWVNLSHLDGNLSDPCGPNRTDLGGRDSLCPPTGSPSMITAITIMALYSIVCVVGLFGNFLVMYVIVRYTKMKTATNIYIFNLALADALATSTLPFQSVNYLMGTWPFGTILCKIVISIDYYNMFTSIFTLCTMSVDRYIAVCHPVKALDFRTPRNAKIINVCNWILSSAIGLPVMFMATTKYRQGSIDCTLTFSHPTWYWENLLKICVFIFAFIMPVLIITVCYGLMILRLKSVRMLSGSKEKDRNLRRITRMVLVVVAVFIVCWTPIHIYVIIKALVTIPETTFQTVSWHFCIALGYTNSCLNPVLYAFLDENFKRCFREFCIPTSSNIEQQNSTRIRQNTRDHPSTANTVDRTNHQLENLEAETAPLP

As for `CC(C)(CO)C(=O)N(CCN1[C@@H]2CC[C@H]1C[C@@H](c1cccc(C(N)=O)c1)C2)Cc1ccccc1.O=C(O)C(F)(F)F`, the pKi in assay [1] and in assay [3] was 7 to 10.5 each time. Further, the Intrinsic activity in assay [2] is below 40%.
`NC(=O)c1cccc([C@H]2C[C@H]3CC[C@@H](C2)N3CCN(CC2CCCC2)C(=O)CCO)c1.O=C(O)C(F)(F)F`: the pKi in assay [1] and in assay [3] was 7 to 10.5 in each case. In addition, the Intrinsic activity in assay [2] is below 40%.
As for `CC(C)(O)C(=O)N(CCCN1[C@@H]2CC[C@H]1C[C@@H](c1cccc(C(N)=O)c1)C2)Cc1ccccc1.O=C(O)C(F)(F)F`, the pKi in assay [1] and in assay [3] was 7 to 10.5 throughout. Further, the Intrinsic activity in assay [2] was below 40%.
For `O=C(Nc1ccc(OC(F)F)cc1)N(CCN1[C@@H]2CC[C@H]1C[C@@H](c1cccc(O)c1)C2)CC1CCCCC1`, the pKi in assay [1] and in assay [3] was 7 to 10.5 in each case. In assay [2], this compound had an Intrinsic activity below 40%.
On to `CS(=O)(=O)CC(=O)N(CCc1ccc(O)cc1)CCN1[C@@H]2CC[C@H]1C[C@@H](c1cccc(C(N)=O)c1)C2.O=C(O)C(F)(F)F`, for which the pKi in assay [1] and in assay [3] was 7 to 10.5 each time. The Intrinsic activity in assay [2] is below 40%.
In the case of `O=C(C1CCCCC1)N(CCN1[C@@H]2CC[C@H]1C[C@@H](c1cccc(O)c1)C2)CC1CCCCC1`, the pKi in assay [1] and in assay [3] was 7 to 10.5 in each case. In assay [2], this compound registered an Intrinsic activity below 40%.
For the compound `NC(=O)c1cccc([C@H]2C[C@H]3CC[C@@H](C2)N3CCN(Cc2ccc(C(F)(F)F)cc2)C(=O)CO)c1.O=C(O)C(F)(F)F`, the pKi in assay [1] and in assay [3] was 7 to 10.5 in each case. The Intrinsic activity in assay [2] was below 40%.
On to `O=C(Nc1cccc(F)c1)N(CCN1[C@@H]2CC[C@H]1C[C@@H](c1cccc(O)c1)C2)CC1CCCCC1`, for which the pKi in assay [1] and in assay [3] was 7 to 10.5 each time. The compound further came in with an Intrinsic activity in assay [2] below 40%.
For `NC(=O)c1cccc([C@H]2C[C@H]3CC[C@@H](C2)N3CCN(CCc2ccccc2)C(=O)[C@@H](O)CO)c1.O=C(O)C(F)(F)F`, the pKi in assay [1] and in assay [3] was 7 to 10.5 in each case. This compound displayed an Intrinsic activity in assay [2] below 40%.
Take `CC(C)(O)C(=O)N(CCN1[C@@H]2CC[C@H]1C[C@@H](c1cccc(C(N)=O)c1)C2)Cc1ccccc1.O=C(O)C(F)(F)F`: the pKi in assay [1] and in assay [3] was 7 to 10.5 each time. Further, the Intrinsic activity in assay [2] was below 40%.
On to `COCC(=O)N(CCN1[C@@H]2CC[C@H]1C[C@@H](c1cccc(C(N)=O)c1)C2)Cc1c(F)cccc1F.O=C(O)C(F)(F)F`, for which the pKi in assay [1] and in assay [3] was 7 to 10.5 in each case. For the same compound, in assay [2], the Intrinsic activity was below 40%.
Take `O=C(NCc1ccc(F)cc1)N(CCN1[C@@H]2CC[C@H]1C[C@@H](c1cccc(O)c1)C2)CC1CCCCC1`: the pKi in assay [1] and in assay [3] was 7 to 10.5 in each case. In addition, the Intrinsic activity in assay [2] was below 40%.
Consider `CS(=O)(=O)N(CCN1[C@@H]2CC[C@H]1C[C@@H](c1cccc(C(N)=O)c1)C2)Cc1c(F)cccc1F.O=C(O)C(F)(F)F`, for which the pKi in assay [1] and in assay [3] was 7 to 10.5 each time. This compound had an Intrinsic activity in assay [2] below 40%.
As for `NC(=O)c1cccc([C@H]2C[C@H]3CC[C@@H](C2)N3CCN(Cc2ccc(F)cc2)C(=O)CO)c1.O=C(O)C(F)(F)F`, the pKi in assay [1] and in assay [3] was 7 to 10.5 throughout. The Intrinsic activity in assay [2] was below 40%.
On to `CN[C@@H](CO)C(=O)N(CCN1[C@@H]2CC[C@H]1C[C@@H](c1cccc(C(N)=O)c1)C2)CC1CCCCC1.O=C(O)C(F)(F)F.O=C(O)C(F)(F)F`, for which the pKi in assay [1] and in assay [3] was 7 to 10.5 in each case. Also, the Intrinsic activity in assay [2] is below 40%.
With `NC(=O)c1cccc([C@H]2C[C@H]3CC[C@@H](C2)N3CCN(CC2CCCC2)C(=O)[C@@H](O)CO)c1.O=C(O)C(F)(F)F`, the pKi in assay [1] and in assay [3] was 7 to 10.5 throughout. Further, the Intrinsic activity in assay [2] is below 40%.
Take `CCC(CC)C(=O)N(Cc1ccccc1)[C@H](C)CN1[C@@H]2CC[C@H]1C[C@@H](c1cccc(O)c1)C2`: the pKi in assay [1] and in assay [3] was 7 to 10.5 throughout. For the same compound, in assay [2], the Intrinsic activity is below 40%.
Consider `NC(=O)c1cccc([C@H]2C[C@H]3CC[C@@H](C2)N3CCN(CC2CCCCC2)C(=O)[C@@H](O)Cc2ccccc2)c1`, for which the pKi in assay [1] and in assay [3] was 7 to 10.5 in each case. This compound showed an Intrinsic activity in assay [2] below 40%.
Turning to `NC(=O)c1cccc([C@H]2C[C@H]3CC[C@@H](C2)N3CCN(CC2CCCCC2)C(=O)CCCO)c1`, the pKi in assay [1] and in assay [3] was 7 to 10.5 in each case. For the same compound, the Intrinsic activity in assay [2] was below 40%.
With `NC(=O)c1cccc([C@H]2C[C@H]3CC[C@@H](C2)N3CCCN(Cc2ccccc2)C(=O)[C@H](O)CO)c1.O=C(O)C(F)(F)F`, the pKi in assay [1] and in assay [3] was 7 to 10.5 in each case. The Intrinsic activity in assay [2] is below 40%.
As for `CS(=O)(=O)CC(=O)N(CCCN1[C@@H]2CC[C@H]1C[C@@H](c1cccc(C(N)=O)c1)C2)Cc1ccccc1.O=C(O)C(F)(F)F`, the pKi in assay [1] and in assay [3] was 7 to 10.5 throughout. In assay [2], this compound showed an Intrinsic activity below 40%.
Consider `O=C(Cc1ccccc1)N(CCN1[C@@H]2CC[C@H]1C[C@@H](c1cccc(O)c1)C2)CC1CCCCC1`, for which the pKi in assay [1] and in assay [3] was 7 to 10.5 each time. Moreover, in assay [2], the Intrinsic activity is below 40%.
In the case of `NC(=O)c1cccc([C@H]2C[C@H]3CC[C@@H](C2)N3CCCN(Cc2ccccc2)C(=O)CO)c1`, the pKi in assay [1] and in assay [3] was 7 to 10.5 throughout. The same compound had an Intrinsic activity in assay [2] below 40%.
`CN(C)[C@@H](Cc1ccccc1)C(=O)N(CCN1[C@@H]2CC[C@H]1C[C@@H](c1cccc(C(N)=O)c1)C2)CC1CCCCC1`: the pKi in assay [1] and in assay [3] was 7 to 10.5 in each case. In assay [2], this compound displayed an Intrinsic activity below 40%.
Regarding `CCN(CC)CC[C@H](O)C(=O)N(CCN1[C@@H]2CC[C@H]1C[C@@H](c1cccc(C(N)=O)c1)C2)CC1CCCCC1`, the pKi in assay [1] and in assay [3] was 7 to 10.5 throughout. In assay [2], the Intrinsic activity was below 40%.
Turning to `O=C(CO)N(CCN1[C@@H]2CC[C@H]1C[C@@H](c1cccc(O)c1)C2)CC1CCCCC1`, the pKi in assay [1] and in assay [3] was 7 to 10.5 in each case. Besides, the Intrinsic activity in assay [2] was below 40%.
On to `C[C@H](CN1[C@@H]2CC[C@H]1C[C@@H](c1cccc(O)c1)C2)N(Cc1ccccc1)C(=O)C1CCCCC1`, for which the pKi in assay [1] and in assay [3] was 7 to 10.5 each time. In assay [2], the Intrinsic activity was below 40%.
For the compound `O=C([C@@H](O)C1CCCCC1)N(CCN1[C@@H]2CC[C@H]1C[C@@H](c1cccc(O)c1)C2)CC1CCCCC1`, the pKi in assay [1] and in assay [3] was 7 to 10.5 throughout. The Intrinsic activity in assay [2] is below 40%.
`NC(=O)c1cccc([C@H]2C[C@H]3CC[C@@H](C2)N3CCN(Cc2c(F)cccc2F)C(=O)C2(O)CC2)c1.O=C(O)C(F)(F)F`: the pKi in assay [1] and in assay [3] was 7 to 10.5 each time. This compound showed an Intrinsic activity in assay [2] below 40%.
For the compound `C[C@H](CN1[C@@H]2CC[C@H]1C[C@@H](c1cccc(O)c1)C2)N(Cc1ccccc1)C(=O)CCC(=O)O`, the pKi in assay [1] and in assay [3] was 7 to 10.5 in each case. The Intrinsic activity in assay [2] was below 40%.
As to `CS(=O)(=O)CC(=O)N(CCN1[C@@H]2CC[C@H]1C[C@@H](c1cccc(O)c1)C2)Cc1cccc(F)c1`, the pKi in assay [1] and in assay [3] was 7 to 10.5 throughout. In assay [2], the Intrinsic activity is below 40%.
For `CC(=O)N(CCN1[C@@H]2CC[C@H]1C[C@@H](c1cccc(O)c1)C2)Cc1ccccc1`, the pKi in assay [1] and in assay [3] was 7 to 10.5 each time. Also, the Intrinsic activity in assay [2] is below 40%.
Regarding `C[C@H](O)C(=O)N(CCN1[C@@H]2CC[C@H]1C[C@@H](c1cccc(C(N)=O)c1)C2)CC1CCC1.O=C(O)C(F)(F)F`, the pKi in assay [1] and in assay [3] was 7 to 10.5 throughout. The Intrinsic activity in assay [2] was below 40%.
As for `NC(=O)c1cccc([C@H]2C[C@H]3CC[C@@H](C2)N3CCN(CCCc2ccccc2)C(=O)CO)c1`, the pKi in assay [1] and in assay [3] was 7 to 10.5 each time. Further, the Intrinsic activity in assay [2] was below 40%.
With `CC(C)CC(=O)N(CCN1[C@@H]2CC[C@H]1C[C@@H](c1cccc(O)c1)C2)CC1CCCCC1`, the pKi in assay [1] and in assay [3] was 7 to 10.5 throughout. The compound also came in with an Intrinsic activity in assay [2] below 40%.
`CC(C)(C)C(=O)N(CCN1[C@@H]2CC[C@H]1C[C@@H](c1cccc(C(N)=O)c1)C2)Cc1ccccc1.O=C(O)C(F)(F)F`: the pKi in assay [1] and in assay [3] was 7 to 10.5 in each case. The compound also had an Intrinsic activity in assay [2] below 40%.
Take `C[C@H](O)C(=O)N(CCN1[C@@H]2CC[C@H]1C[C@@H](c1cccc(C(N)=O)c1)C2)CC1CCC(F)(F)CC1.O=C(O)C(F)(F)F`: the pKi in assay [1] and in assay [3] was 7 to 10.5 in each case. The Intrinsic activity in assay [2] was below 40%.
With `CS(=O)(=O)CC(=O)N(CCN1[C@@H]2CC[C@H]1C[C@@H](c1cccc(C(N)=O)c1)C2)CC1CCC1.O=C(O)C(F)(F)F`, the pKi in assay [1] and in assay [3] was 7 to 10.5 in each case. Also, the Intrinsic activity in assay [2] was below 40%.
Consider `CC1(C)C(CN(CCN2[C@@H]3CC[C@H]2C[C@@H](c2cccc(C(N)=O)c2)C3)C(=O)CO)C1(C)C`, for which the pKi in assay [1] and in assay [3] was 7 to 10.5 throughout. Further, the Intrinsic activity in assay [2] was below 40%.
As for `N#CCC(=O)N(CCN1[C@@H]2CC[C@H]1C[C@@H](c1cccc(C(N)=O)c1)C2)Cc1ccccc1.O=C(O)C(F)(F)F`, the pKi in assay [1] and in assay [3] was 7 to 10.5 each time. The Intrinsic activity in assay [2] is below 40%.
`NC(=O)c1cccc([C@H]2C[C@H]3CC[C@@H](C2)N3CCN(CC2CCCCC2)C(=O)[C@@H](O)CCO)c1.O=C(O)C(F)(F)F`: the pKi in assay [1] and in assay [3] was 7 to 10.5 in each case. The Intrinsic activity in assay [2] is below 40%.
Regarding `CC(C)C[C@H](O)C(=O)N(CCN1[C@@H]2CC[C@H]1C[C@@H](c1cccc(C(N)=O)c1)C2)Cc1c(F)cccc1F.O=C(O)C(F)(F)F`, the pKi in assay [1] and in assay [3] was 7 to 10.5 each time. This compound also displayed an Intrinsic activity in assay [2] below 40%.

These data come from ChEMBL document CHEMBL3879907, “8-azabicyclo[3.2.1]octane compounds as mu opioid receptor antagonists” (2014).
